From patent publication US20120165339A1, “CYCLOPROPANE DERIVATIVES” (EISAI R&D MANAGEMENT CO., LTD., priority 2010, published 2012) come the findings set out here.

The target in test [1] is T1, OX1 (Homo sapiens, UniProt O43613).
T1 sequence (O43613 1-425): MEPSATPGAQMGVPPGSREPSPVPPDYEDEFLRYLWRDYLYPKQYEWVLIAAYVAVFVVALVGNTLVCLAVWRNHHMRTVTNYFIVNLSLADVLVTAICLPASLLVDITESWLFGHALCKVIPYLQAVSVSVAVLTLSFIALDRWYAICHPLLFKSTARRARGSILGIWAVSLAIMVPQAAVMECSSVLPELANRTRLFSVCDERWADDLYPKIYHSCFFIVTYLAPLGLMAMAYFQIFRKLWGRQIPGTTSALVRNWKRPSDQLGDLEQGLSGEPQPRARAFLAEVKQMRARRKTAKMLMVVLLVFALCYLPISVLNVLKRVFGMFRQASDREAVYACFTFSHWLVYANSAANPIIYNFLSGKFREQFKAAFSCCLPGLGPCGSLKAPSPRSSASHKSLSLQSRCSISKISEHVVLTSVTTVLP
The test is described as follows: Orexin-receptor binding ability, [125I]-OX-A, CHO cell membranes expressing OX1. More on the design: expressed in transfected cells; host or cells: CHO cells (membrane preparation). Here is the method: (§1) The assay was carried out using a 96-well Wheat Germ Agglutinin Flash Plate (PerkinElmer). The volume in a single assay well was 100 ul, and the composition of the reaction solution was as follows:
(§2) 25 mM HEPES (pH 7.5), 1 mM CaCl2, 4.5 mM MgCl2, 0.5% BSA (bovine serum albumin), 0.1% sodium azide, 0.05% Tween-20, and 0.2% DMSO.
Cell membranes were prepared from recombinant CHO cells that expressed OX2 or OX1. The cell membranes were used in an amount of 5 μg protein/assay. […] Finally, the radioactivity of each well was measured using a scintillation counter (TopCount, PerkinElmer). The obtained results are shown in terms of IC50 values (nM) in the following table.

Test [2] concerns the target T2, OX2 (Homo sapiens, UniProt O43614).
T2 sequence (O43614 1-444): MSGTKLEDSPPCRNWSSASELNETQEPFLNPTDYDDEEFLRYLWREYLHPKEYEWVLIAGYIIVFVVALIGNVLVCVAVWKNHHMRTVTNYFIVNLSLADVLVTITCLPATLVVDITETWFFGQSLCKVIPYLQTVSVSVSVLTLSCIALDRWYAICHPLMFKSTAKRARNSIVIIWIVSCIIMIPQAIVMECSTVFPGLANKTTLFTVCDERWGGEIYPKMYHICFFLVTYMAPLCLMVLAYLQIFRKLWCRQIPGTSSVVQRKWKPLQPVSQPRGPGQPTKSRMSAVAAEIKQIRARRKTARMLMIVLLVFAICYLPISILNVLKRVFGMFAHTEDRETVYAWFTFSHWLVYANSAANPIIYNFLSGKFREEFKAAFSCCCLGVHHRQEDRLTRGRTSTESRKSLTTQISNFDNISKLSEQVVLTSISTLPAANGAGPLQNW
Kind of test: Orexin-receptor binding ability, [125I]-OX-A, CHO cell membranes expressing OX2. On the set-up: expressed in transfected cells; host or cells: CHO cells (membrane preparation). Here is the method: as §1, §2
Cell membranes were prepared from recombinant CHO cells that expressed OX2 or OX1. The cell membranes were used in an amount of 5 μg protein/assay. Test compound in various concentrations, and 0.2 nM [^125I]-OX-A as tracer were added to the cell membranes, and then allowed to react at room temperature for 30 minutes. After completion of the reaction, the reaction solution as a whole was discarded, and the wells were then washed once with 200 ul of wash buffer (25 mM HEPES (pH 7.5), 1 mM CaCl2, 5 mM MgCl2, 0.5% BSA, 0.1% sodium azide, 0.05% Tween-20, and 525 mM sodium chloride). Finally, the radioactivity of each well was measured using a scintillation counter (TopCount, PerkinElmer). The obtained results are shown in terms of IC50 values (nM) in the following table.

Test [3] addresses T1, OX1. Kind of test: Antagonism PLAP reporter assay, HEK-293 cells expressing human OX1. The note with it: HEK-293, 1 nM human OX-A; IC50 converted to Ki by Cheng-Prusoff equation. The class given is cell-based. More on the design: expressed in transfected cells; host or cells: HEK-293 cell line, expression vector pBabeCLIH. The procedure: (§3) The antagonistic function of the compound of the present invention to prevent the activation of OX2 and OX1 by orexin-A (OX-A), which is a natural peptide agonist, was measured using a cell-based reporter assay. A HEK-293 cell line expressing genetically recombinant human OX2 (accession No. NM_001526.3) or a HEK-293 cell line expressing genetically recombinant human OX1 (accession No. NM_001525.2), which had pBabeCLIH as expression vector, was used. The cells were plated at a density of 10,000 cells/well onto a non-coated 96-well plate in Dulbecco's modified Eagle medium (Sigma Cat No. D6046: 10% v/v heat-inactivated fetal bovine serum was contained). The cells were cultured at 37° C. overnight, so that they could adhere to the plate. On the following day, cells were incubated with a compound of the present invention dissolved in Dulbecco's modified Eagle medium (Sigma Cat No. A8806: 0.1% w/v bovine serum albumin was contained), and added to the cell plate to reach a final concentration of 0.1% dimethyl sulfoxide.
(§4) The thus obtained mixture was incubated at room temperature for 1 hour. Thereafter, human OX-A and forskolin were dissolved in the same medium as described above, which contained fetal bovine serum albumin, and the medium was then added to the cells, resulting in a final concentration of 300 nM forskolin. Subsequently, the cells were cultured at 37° C. for approximately 18 to 24 hours. During the culture, as a result of activation of the orexin receptor and subsequent dose-dependent increase in intracellular calcium concentration, a reporter enzyme, placental alkaline phosphatase (PLAP), was expressed under the control of a CRE x4+VIP promoter in a pBabeCLcre4vPdNN vector and secreted into the culture medium supernatant. On the following day, reporter enzyme activity was detected by mixing 5 ul of the culture medium supernatant with 20 ul of detection buffer (containing 1.34 g/L sodium bicarbonate, 1.27 g/L sodium carbonate and 0.2 g/L magnesium sulfate heptahydrate in water) and 25 ul of Lumi-Phos530 reagent (Wako Pure Chemical Industries Ltd.), followed by incubating the obtained mixture light-protected at room temperature for 2 hours, before performing luminescence measurement (ARVO Reader, PerkinElmer). The Kd value of human OX-A with respect to each receptor was measured by titration from 0 to 300 nM. Then, the IC50 value of the compound of the present invention with respect to the activity of 1 nM human OX-A was converted into a Ki value (nM) using the Cheng-Prusoff equation.

Test [4] addresses T2, OX2. The test is described as follows: Antagonism PLAP reporter assay, HEK-293 cells expressing human OX2. The class given is cell-based. More on the design: expressed in transfected cells; host or cells: HEK-293 cell line, expression vector pBabeCLIH. The conditions noted are these: HEK-293, 1 nM human OX-A; IC50 converted to Ki by Cheng-Prusoff equation. Here is the method:
as §3, §4
(In general: In a reporter assay the amount or activity of a reporter protein is the signal.)

[5] abbreviates: membranes of recombinant CHO cells, 0.2 nM [125I]-OX-A tracer, read-out: OX1 (IC50).
The mark [6] stands for this setting: membranes of recombinant CHO cells, 0.2 nM [125I]-OX-A tracer, read-out: OX2 (IC50).

As usually defined, the pIC50 is −log10 of the IC50, conventionally taken in molar units. As usually defined, the pKi is the negative decadic logarithm of the Ki, by convention in mol/L. The low end stands for a large Ki, the high end for a small Ki.

pIC50, pKi: −log10 of the molar value. Read-outs that look alike come from different tables or passages of the source.

Regarding `CCn1cc(OC[C@@]2(c3ccccc3)C[C@H]2C(=O)Nc2ccc(F)cn2)ccc1=O` (racemic) [Example 56], the figures for the pIC50 on OX1 [1] (setting [5]) and at OX2 [2] were 6.80 and 7.85, respectively. Moreover, the pKi is 6.80 at OX1 [3] and 8.04 at OX2 [4].
Turning to `COc1ccc(OCC2(c3ccccc3)CC2C(=O)Nc2ccccc2)cc1OC` (centres unmarked) [Example 1], the pIC50 on OX1 [1] (setting [5]) and at OX2 [2] (setting [6]) was 8.15 each time. The pKi was 6.40 on OX1 [3] and 7.27 on OX2 [4].
With `COc1ccc(OCC2(c3ccccc3)CC2C(=O)Nc2ccc(Cl)cn2)cc1OC` (centres unmarked) [Example 6, N-(5-chloropyridin-2-yl)-2-[(3,4-dimethoxyphenyl)oxymethyl]-2-phenylcyclopropanecarboxamide], the values for the pIC50 on OX1 [1] and at OX2 [2] were 7.72 and 8.52, respectively. Further, the negative logarithm of the Ki (pKi) is 8.01 at OX1 [3] and 9.10 on OX2 [4].
On to `COc1ccc(OCC2(c3ccccc3)CC2C(=O)Nc2nc(C)ns2)cc1OC` (centres unmarked) [Example 7, N-(3-methyl-1,2,4-thiadiazol-5-yl)-2-[(3,4-dimethoxyphenyl)oxymethyl]-2-phenylcyclopropanecarboxamide], for which the negative logarithm of the IC50 (pIC50) was 5.72 at OX1 [1] (setting [5]) and 7.37 at OX2 [2] (setting [6]). In addition, the figures for the negative-log Ki (pKi) on OX1 [3] and at OX2 [4] were less than 6.09 and 7.25, respectively.
For the compound `COc1ccc(OCC2(c3ccccc3)CC2C(=O)Nc2cc(C)no2)cc1OC` (centres unmarked) [Example 8, N-(3-methylisoxazol-5-yl)-2-[(3,4-dimethoxyphenyl)oxymethyl]-2-phenylcyclopropanecarboxamide], the pIC50 is 5.90 on OX1 [1] (setting [5]) and 7.77 at OX2 [2] (setting [6]). Also, the figures for the pKi at OX1 [3] and on OX2 [4] were less than 6.09 and 7.04, respectively.
The matching figures for `COc1ccc(OCC2(c3ccccc3)CC2C(=O)Nc2ccc(F)cn2)cc1OC` (centres unmarked) [Example 10, N-(5-fluoropyridin-2-yl)-2-[(3,4-dimethoxyphenyl)oxymethyl]-2-phenylcyclopropanecarboxamide]: 7.25, 8.52, 7.16 and 8.38.
The like results for `COc1ccc(OCC2(c3ccccc3)CC2C(=O)Nc2cncc(Cl)c2)cc1OC` (centres unmarked) [Example 11, N-(5-chloropyridin-3-yl)-2-[(3,4-dimethoxyphenyl)oxymethyl]-2-phenylcyclopropanecarboxamide] were, in that order, 6.48, 7.54, 6.24 and 7.32.
The matching figures for `COc1ccc(OCC2(c3ccccc3)CC2C(=O)Nc2ccncc2Cl)cc1OC` (centres unmarked) [Example 14, N-(3-chloropyridin-4-yl)-2-[(3,4-dimethoxyphenyl)oxymethyl]-2-phenylcyclopropanecarboxamide]: 6.36, 7.34, less than 6.09 and 7.00.
Take `COc1ccc(OCC2(c3ccccc3)CC2C(=O)Nc2cc(C#N)ccn2)cc1OC` (centres unmarked) [Example 18, N-(4-cyanopyridin-2-yl)-2-[(3,4-dimethoxyphenyl)oxymethyl]-2-phenylcyclopropanecarboxamide]: the pIC50 at OX1 [1] (setting [5]) was 6.98; on OX2 [2] (setting [6]) it was 7.46. The negative-log Ki (pKi) at OX1 [3] is 6.73; on OX2 [4], 7.63.
The matching figures for `COc1ccc(OCC2(c3ccccc3)CC2C(=O)Nc2cc(C)on2)cc1OC` (centres unmarked) [Example 21, N-(5-methylisoxazol-3-yl)-2-[(3,4-dimethoxyphenyl)oxymethyl]-2-phenylcyclopropanecarboxamide]: 6.30, 7.55, less than 6.09 and 7.11.
The matching figures for `COc1ccc(OCC2(c3ccccc3)CC2C(=O)Nc2ncc(C)s2)cc1OC` (centres unmarked) [Example 22, N-(5-methyl-1,3-thiazol-2-yl)-2-[(3,4-dimethoxyphenyl)oxymethyl]-2-phenylcyclopropanecarboxamide]: 6.53, 7.46, less than 6.09 and less than 6.21.
